The subject of one data set is HeLa 229. Description: Antiproliferative activity against human HeLa 229 cells after 72 hrs by MTT assay. It is filed as functional, cell-based. The note with it: HeLa 229, 72 h.
For another data set, the system named is A549. Description: Antiproliferative activity against human A549 cells after 72 hrs by MTT assay. It counts as functional, cell-based. To be noted: A549, 72 h. For orientation: Tetrazolium dyes change colour on reduction, which living cells bring about.
Data set [1] concerns MGC-803. Description: Antiproliferative activity against human MGC803 cells after 72 hrs by MTT assay. It counts as functional, cell-based. The note with it: MGC-803, 72 h.
Data set [2] has as its system SGC-7901. Description: Induction of apoptosis in human SGC7901 cells at 10 uM after 12 hrs by Annexin V-FITC staining-based FACS analysis (reference value: 1.56%). It counts as functional. Background: A flow cytometer gives signals particle by particle.
Data set [3] has as its system MGC-803. Description: Induction of apoptosis in human MGC803 cells at 10 uM after 12 hrs by Annexin V-FITC staining-based FACS analysis (reference value: 1.17%). It is filed as functional.
In data set [4] the test system is SGC-7901. Description: Antiproliferative activity against human SGC7901 cells after 72 hrs by MTT assay. It counts as functional, cell-based. The note with it: SGC-7901, 72 h.
Data set [5] relates to MGC-803. Description: Induction of apoptosis in human MGC803 cells assessed as decrease in Bcl-2 levels at 1 to 10 uM after 12 hrs by Western blot analysis. It is filed as functional, cell-based. On the technique in general: In western blotting, separated proteins are transferred to a membrane and probed.
For data set [6], the system named is MGC-803. Description: Induction of apoptosis in human MGC803 cells at 1 uM after 12 hrs by Annexin V-FITC staining-based FACS analysis (reference value: 1.17%). It is filed as functional.
Data set [7] has as its target T1, Inhibitor of NF-kappa-B kinase alpha/beta (Homo sapiens) (UniProt O14920+O15111). Description: Inhibition of TNF-alpha induced IKKalpha/beta phosphorylation in human SGC-7901 cells preincubated for 1 hr followed by TNF-alpha stimulation and measured after 10 mins by Western blot analysis. It is filed as cell-based.
For data set [8], the target named is T2, Inhibitor of nuclear factor kappa-B kinase subunit beta (Homo sapiens) (UniProt O14920).
T2 sequence (whole entry): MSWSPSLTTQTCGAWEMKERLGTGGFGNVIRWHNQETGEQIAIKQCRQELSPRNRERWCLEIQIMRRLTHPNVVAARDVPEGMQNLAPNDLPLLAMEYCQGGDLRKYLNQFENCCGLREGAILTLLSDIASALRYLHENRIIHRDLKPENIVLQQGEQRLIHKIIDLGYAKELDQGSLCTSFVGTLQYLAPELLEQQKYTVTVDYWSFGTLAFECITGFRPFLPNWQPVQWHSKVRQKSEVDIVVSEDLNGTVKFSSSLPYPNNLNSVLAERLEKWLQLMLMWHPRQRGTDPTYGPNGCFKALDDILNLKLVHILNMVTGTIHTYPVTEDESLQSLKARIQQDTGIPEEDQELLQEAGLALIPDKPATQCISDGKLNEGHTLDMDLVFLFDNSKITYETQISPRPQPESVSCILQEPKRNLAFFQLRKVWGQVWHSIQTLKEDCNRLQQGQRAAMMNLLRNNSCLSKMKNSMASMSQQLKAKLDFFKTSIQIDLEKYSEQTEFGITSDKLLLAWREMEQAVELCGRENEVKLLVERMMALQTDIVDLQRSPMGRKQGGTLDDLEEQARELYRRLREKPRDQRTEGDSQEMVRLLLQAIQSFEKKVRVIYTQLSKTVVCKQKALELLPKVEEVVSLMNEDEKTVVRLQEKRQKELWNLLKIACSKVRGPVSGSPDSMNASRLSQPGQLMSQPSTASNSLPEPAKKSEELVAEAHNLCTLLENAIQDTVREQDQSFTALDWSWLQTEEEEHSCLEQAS
Description: Inhibition of IKKbeta in human SGC-7901 cells assessed as decrease in TNF-alpha induced p65 nuclear translocation at 10 uM preincubated for 1 hr followed by TNF-alpha stimulation and measured after 1 hr by DAPI staining-based fluorescence microscopic analysis. It counts as cell-based.

Data set [9] deals with T1, Inhibitor of NF-kappa-B kinase alpha/beta (Homo sapiens). Description: Inhibition of TNF-alpha induced IKKalpha/beta phosphorylation in human MGC-803 cells preincubated for 1 hr followed by TNF-alpha stimulation and measured after 10 mins by Western blot analysis. It counts as cell-based.
Data set [10] relates to MGC-803. Description: Cell cycle arrest in human MGC803 cells assessed as decrease in cyclinB1 levels at 1 to 10 uM after 12 hrs by Western blot analysis. It is filed as functional, cell-based.
Data set [11] relates to SGC-7901. Description: Induction of apoptosis in human SGC7901 cells at 1 uM after 12 hrs by Annexin V-FITC staining-based FACS analysis (reference value: 1.56%). It counts as functional.
The subject of data set [12] is MGC-803. Description: Cell cycle arrest in human MGC803 cells assessed as decrease in Cdc2 p34 levels after 12 hrs by Western blot analysis. It counts as functional, cell-based.
Data set [13] concerns Mus musculus. Description: Toxicity in athymic nude mouse xenografted with human SGC7901 cells assessed as body weight loss at 10 mg/kg, ip administered every other day for 22 days. The note with it: in vivo, 528 h. It counts as organism-based.
Data set [14] has as its system MGC-803. Description: Induction of apoptosis in human MGC803 cells at 5 uM after 12 hrs by Annexin V-FITC staining-based FACS analysis (reference value: 1.17%). It counts as functional.
The subject of data set [15] is SGC-7901. Description: Induction of apoptosis in human SGC7901 cells assessed as increase in cleaved caspase-3 levels at 1 to 10 uM after 12 hrs by Western blot analysis. It counts as functional, cell-based.
The test system of data set [16] is MGC-803. Description: Induction of apoptosis in human MGC803 cells assessed as increase in cleaved caspase-3 levels at 1 to 10 uM after 12 hrs by Western blot analysis. It is filed as functional, cell-based.
Data set [17] concerns MGC-803. Description: Cell cycle arrest in human MGC803 cells assessed as accumulation of cells at G2/M phase at 1 to 10 uM after 12 hrs by propidium iodide staining-based flow cytometric analysis. It counts as functional.
Data set [18] deals with Mus musculus. Description: Downregulation of Bcl-2 levels in tumor of athymic nude mouse xenografted with human SGC7901 cells at 10 mg/kg, ip administered every other day for 22 days by Western blot method. It counts as functional, organism-based.
Data set [19] relates to SGC-7901. Description: Cell cycle arrest in human SGC7901 cells assessed as decrease in Cdc2 p34 levels after 12 hrs by Western blot analysis. It counts as functional, cell-based.
The subject of data set [20] is Mus musculus. Description: In vivo inhibition of IKKalpha/beta in tumor of athymic nude mouse xenografted with human SGC7901 cells assessed as I-kappa-B-alpha degradation at 10 mg/kg, ip administered every other day for 22 days by Western blot method. It counts as functional, organism-based.
Data set [21] relates to SGC-7901. Description: Cell cycle arrest in human SGC7901 cells assessed as decrease in cyclinB1 levels at 1 to 10 uM after 12 hrs by Western blot analysis. It counts as functional, cell-based.
The target in data set [22] is T2, Inhibitor of nuclear factor kappa-B kinase subunit beta (Homo sapiens). Description: Inhibition of IKKbeta in human SGC-7901 cells assessed as TNF-alpha induced I-kappa-B-alpha degradation at 1 to 10 uM preincubated for 1 hr followed by TNF-alpha stimulation and measured after 10 mins by Western blot analysis. It counts as cell-based.
Data set [23] concerns Mus musculus. Description: In vivo inhibition of IKKalpha/beta phosphorylation in tumor of athymic nude mouse xenografted with human SGC7901 cells at 10 mg/kg, ip administered every other day for 22 days by Western blot method. It is filed as functional, organism-based.
The subject of data set [24] is SGC-7901. Description: Induction of apoptosis in human SGC7901 cells at 5 uM after 12 hrs by Annexin V-FITC staining-based FACS analysis (reference value: 1.56%). It is filed as functional.
The test system of data set [25] is SGC-7901. Description: Induction of apoptosis in human SGC7901 cells after 12 hrs by Annexin V-FITC staining-based FACS analysis. It is filed as functional, cell-based.
Data set [26] concerns SGC-7901. Description: Antitumor activity against human SGC7901 cells xenografted in athymic nude mouse assessed as tumor growth inhibition at 10 mg/kg, ip administered every other day for 22 days. It counts as functional, organism-based.
In data set [27] the target is T2, Inhibitor of nuclear factor kappa-B kinase subunit beta (Homo sapiens). Description: Inhibition of IKKbeta in human MGC-803 cells assessed as TNF-alpha induced I-kappa-B-alpha degradation at 1 to 10 uM preincubated for 1 hr followed by TNF-alpha stimulation and measured after 10 mins by Western blot analysis. It counts as cell-based.
For data set [28], the system named is SGC-7901. Description: Cell cycle arrest in human SGC7901 cells assessed as accumulation of cells at G2/M phase at 1 to 10 uM after 12 hrs by propidium iodide staining-based flow cytometric analysis. It is filed as functional.
Data set [29] relates to MGC-803. Description: Induction of apoptosis in human MGC803 cells after 12 hrs by Annexin V-FITC staining-based FACS analysis. It is filed as functional, cell-based.
The subject of data set [30] is SGC-7901. Description: Induction of apoptosis in human SGC7901 cells assessed as decrease in Bcl-2 levels at 1 to 10 uM after 12 hrs by Western blot analysis. It counts as functional, cell-based.
Data set [31] addresses T3, Inhibitor of nuclear factor kappa-B kinase subunit beta (Homo sapiens, UniProt O14920).
T3 sequence (O14920 whole entry): T2 sequence (whole entry)
Description: Inhibition of IKKbeta (unknown origin) using FAM-P22 as substrate preincubated for 10 mins followed by substrate addition and measured after 1 hr by mobility shift assay.

Each structure is given as a SMILES string. Activity calls are given as the source filed them. The calls are words filed in the database; no cut-off is given here.

The IC50 is the concentration that gives 50% inhibition.

`Cc1ccc2nc(NCCN)c3ncc(C)n3c2c1.Cl`: the IC50 in the data set with HeLa 229 stood at 9400 nM; with A549 it was 9300 nM; with MGC-803 [1], 14200 nM; with SGC-7901 [4], 8300 nM. In addition, the Activity with SGC-7901 [2] came out at 19.49%; in the data set with MGC-803 [3] it was 12.61%.

For `O=C1/C(=C/c2ccccc2Br)CNC/C1=C\c1ccccc1Br`, the result with MGC-803 [5], with MGC-803 [10], in the data set with SGC-7901 [15], with MGC-803 [16], in the data set on MGC-803 [17] and in the data set with Mus musculus [18] was Active. Besides, the outcome with SGC-7901 [21], in the data set on SGC-7901 [28] and with SGC-7901 [30] was Active. Moreover, the Activity in the data set on MGC-803 [6] was 9.88%; in the data set with SGC-7901 [11] it was 8.95%; in the data set on MGC-803 [12] it was “Dose-dependent effect”; in the data set on Mus musculus [13], “Non-Toxic”; with MGC-803 [14], 16.14%; with SGC-7901 [2], 45.3%. Also, the Activity in the data set on MGC-803 [3] was 32.1%; in the data set with SGC-7901 [19], “Dose-dependent effect”; in the data set on SGC-7901 [24], 27.9%; with SGC-7901 [25], “Dose-dependent effect”; with MGC-803 [29], “Dose-dependent effect”. Moreover, the inhibition entry in data set [7] and in data set [9] was “Dose-dependent effect” in each case. Also, the inhibition result (in [8]; in the data set with Mus musculus [20]; in data set [22]; in the data set on Mus musculus [23]; in [27]) was “Active” each time. The IC50 came out at 1800 nM in the data set on HeLa 229, 2100 nM in the data set with A549, 1800 nM in the data set on MGC-803 [1] and 1200 nM with SGC-7901 [4]. The TGI entry in the data set with SGC-7901 [26] is “Active”.

In the case of `O=C1/C(=C/c2c(F)cccc2F)CNC/C1=C\c1c(F)cccc1F`, the IC50 in data set [31] was found to be 14000 nM.

As for `O=C1/C(=C/c2ccccc2F)COC/C1=C\c1ccccc1F`, the IC50 in [31] was found to be 19600 nM.

As to `O=C1/C(=C/c2ccccc2F)CNC/C1=C\c1ccccc1F`, the IC50 in the data set on HeLa 229 stood at 1900 nM; with A549, 2800 nM; with MGC-803 [1], 2000 nM; in the data set with SGC-7901 [4], 1000 nM.

Values taken from ChEMBL document CHEMBL4145489, “Synthesis and anti-tumor activity of EF24 analogues as IKKβ inhibitors” (Eur J Med Chem, 2018).
